Assay results reported in patent US20250360142A1, “NOVEL ATP-SENSITIVE POTASSIUM CHANNEL POTENTIATORS, THEIR PREPARATION AND USE” (RHYTHM PHARMACEUTICALS, INC., priority 2022, published 2025).

These molecules were tested on EndoC-βH1 Cell Line (assay: GSIS assay in EndoC-βH1 cell line). Details: not given.
Assay type: cell-based
Description: (§1) INS-1E, rat pancreatic tumor (insulinoma) cells were used in the GSIS assay. INS-1E cells were thawed and incubated in culture medium (CM) (RPMI 1640+Glucose q.s., HEPES 25 mM, Na-Pyruvat 1 mM, 2-Mercaptoethanol 50 μM, Fetal Calf Serum; heat inactivated (FCS) 10%, Penicillin/Streptomycin 100 U/ml) at 37° C.; 5% CO2 in a humidified atmosphere. 96 welled plates are coated with Matrigel by incubating the plates with 1 ml pre-diluted 1:10 with cold basal medium with 100 μl/well at 37° C. for 1 hour. Matrigel is then removed and replaced with 100 μl CM. Cells are then seeded into the wells as 70 000 cells/well. CM is refreshed with 200 μl fresh CM on the third day. CM is refreshed again with 200 μl fresh CM on the sixth day. GSIS assay is performed on the seventh day and cells in wells are washed with PKrebs®BSA and incubated with 100 μL/well for 2 h. Secretion plates are placed in an incubator at 37° C., 5% C02 and saturated humidity for 60 min. Meanwhile, lysis solution is prepared by adding 1 tablet of protease inhibitor/10 mL TETG solution and kept at 4° C. until the end of the experiment. The other incubation buffers are prepared without adding pharmacological compounds, aliquoted and then placed in a water bath at 37° C. The samples are prepared including negative (βKrebs®B0=0 mM Glucose) and positive controls (PKrebs®B20=20 mM Glucose) and each compound to be tested is diluted in DMSO as having a series of final concentration including 10.00, 4.00, 1.60, 0.64, 0.26, 0.10, 0.04, 0.02 μM.
(§2) After 2 hours of starvation, glucose stimulation and treatments are initiated. KRB Buffer from cells is removed by pipetting. The solutions are homogenized and the cells are treated with 90 µL/well. 10 μl from 10-fold compound dilution is added to the assay plate (final 100 μl/well) according to the following layout for each compound to be tested.
(§3) Incubation time is 40 minutes. Plates are placed in an incubator at 37° C., 5% CO2 and saturated humidity. After incubation, 80 μL of supernatants are collected without disrupting the cell layer and stored at 4° C. or on ice until centrifugation. Remaining medium are removed from each well and 100 μL/well of cold lysis solution is added and incubated for minimum 2 minutes at room temperature. Cell lysis is observed under microscope and waited for maximum for 5 more minutes until the lysis is complete. Cell lysates are collected and all samples including supernatants are centrifuged at 700×g, 5 min at 4° C. 30 μL of each samples are transferred into aliquots for ELISA. ELISA is performed with HTRF Assay Kit comprising an insulin high range kit supplied by Cisbio/Perkin Elmer. 5 μl of each Insulin standard and 5 μl of either supernatant or lysate are transferred on HTRF plate. 40 μl/well of Anti-insulin—XL665 and 20 μl/well of Anti-insulin—EU are added to each well and the plate is read on HTRF compatible reader (fluorescence 620 nm & 665 nm).
GSIS experiments were also performed in other cell lines, e.g., EndoC-βH1, a canonical cell line for screening new therapeutic compounds.

Row | IC50 [nM] | Structure (SMILES)
1 | ≥ 2000 | C[C@@H]1C[C@H]1NC1=NS(=O)(=O)c2cc(F)c(Cl)cc2N1 (stereo in doubt) [Compound 27, 6-chloro-7-fluoro-3-(((1R*, 2R*)-2 methylcyclopropyl)amino)-4H-benzo[e][1,2,4]-thiadiazine 1,1-dioxide]
2 | ≥ 2000 | O=S1(=O)N=C(NC23CC(F)(C2)C3)Nc2ccc(F)cc21 [Compound 3, 7-fluoro-3-((3-fluorobicyclo[1.1.1]pentan-1-yl)amino)-4H-benzo[e][1,2,4]thiadiazine 1,1-dioxide]
3 | < 500 | CC1(NC2=NS(=O)(=O)c3cc(F)ccc3N2)CCC1 [Compound 2, 7-fluoro-3-((1-methylcyclobutyl)amino)-4H-benzo[e][1,2,4]thiadiazine 1,1-dioxide]
4 | 500 to 1000 | O=S1(=O)N=C(NC23CCC(C2)C3)Nc2ccc(F)cc21 [Compound 4, 3-(bicyclo[2.1.1]hexan-1-ylamino)-7-fluoro-4H-benzo[e][1,2,4]thiadiazine 1,1-dioxide]
5 | ≥ 2000 | O=S1(=O)N=C(NC23CC(F)(C2)C3)Nc2cc(Cl)c(F)cc21 [Compound 19, 6-chloro-7-fluoro-3-((3-fluorobicyclo[1.1.1]pentan-1-yl)amino)-4H-benzo[e][1,2,4]thiadiazine 1,1-dioxide]
6 | < 500 | CC1(NC2=NS(=O)(=O)c3cc(F)c(Cl)cc3N2)CCC1 [Compound 24, 6-chloro-7-fluoro-3-((1-methylcyclobutyl)amino)-4H-benzo[e][1,2,4]thiadiazine 1,1-dioxide]
7 | 500 to 1000 | O=S1(=O)N=C(NC2CC23CCC3)Nc2cc(Cl)c(F)cc21 (single isomer, unassigned) [Compound 16, (S*)-6-chloro-7-fluoro-3-(spiro[2.3]hexan-1-ylamino)-4H-benzo[e][1,2,4]-thiadiazine 1,1-dioxide]
8 | 1000 to 2000 | C[C@H]1C[C@@H]1NC1=NS(=O)(=O)c2cc(F)c(Cl)cc2N1 (stereo in doubt) [Compound 26, 6-chloro-7-fluoro-3-(((1S*, 2S*)-2-methylcyclopropyl)amino)-4H-benzo[e][1,2,4]-thiadiazine 1,1-dioxide]
9 | 1000 to 2000 | O=S1(=O)N=C(NC2CC23CC3)Nc2ccc(F)cc21 (stereo not shown) [Compound 8, 7-fluoro-(spiro[2.2]pentan-1-ylamino)-4H-benzo[e][1,2,4]thiadiazine 1,1-dioxide]
10 | < 500 | O=S1(=O)N=C(NC2CC23CC3)Nc2cc(Cl)c(F)cc21 (stereo not shown) [Compound 28, 6-chloro-7-fluoro-3-(spiro[2.2]pentan-1-ylamino)-4H-benzo[e][1,2,4]thiadiazine 1,1-dioxide]
11 | < 500 | CC1(C)CC1NC1=NS(=O)(=O)c2cc(F)c(Cl)cc2N1 (stereo not shown) [Compound 20, 6-chloro-3-((2,2-dimethylcyclopropyl)amino)-7-fluoro-4H-benzo[e][1,2,4] thiadiazine 1,1-dioxide]
12 | < 500 | O=S1(=O)N=C(NC2CC23CC3)Nc2cc(Cl)c(F)cc21 (single isomer, unassigned) [Compound 30, (R*)-6-chloro-7-fluoro-3-(spiro[2.2]pentan-1-ylamino)-4H-benzo[e][1,2,4]-thiadiazine 1,1-dioxide]
13 | 500 to 1000 | CC1(C)CC1NC1=NS(=O)(=O)c2cc(F)c(Cl)cc2N1 (single isomer, unassigned) [Compound 21, (S*)-6-chloro-3-((2,2-dimethylcyclopropyl)amino)-7-fluoro-4H benzo[e][1,2,4] thiadiazine 1,1-dioxide]
14 | 1000 to 2000 | CC1(C)CC1NC1=NS(=O)(=O)c2cc(F)c(Cl)cc2N1 (single isomer, unassigned) [Compound 22, (R*)-6-chloro-3-((2,2-dimethylcyclopropyl)amino)-7-fluoro-4H-benzo[e][1,2,4] thiadiazine 1,1-dioxide]
15 | 1000 to 2000 | CC1(C)CC1NC1=NS(=O)(=O)c2cc(F)ccc2N1 (stereo not shown) [Compound 5, 3-((2,2-dimethylcyclopropyl)amino)-7-fluoro-4H-benzo[e][1,2,4]thiadiazine 1,1-dioxide]
16 | ≥ 2000 | O=S1(=O)N=C(NC2CC23CC3)Nc2cc(Cl)c(F)cc21 (single isomer, unassigned) [Compound 29, (S*)-6-chloro-7-fluoro-3-(spiro[2.2]pentan-1-ylamino)-4H-benzo[e][1,2,4]-thiadiazine 1,1-dioxide]
17 | < 500 | O=S1(=O)N=C(NC2CC23CCC3)Nc2cc(Cl)c(F)cc21 (single isomer, unassigned) [Compound 17, (R*)-6-chloro-7-fluoro-3-(spiro[2.3]hexan-1-ylamino)-4H-benzo[e][1,2,4]-thiadiazine 1,1-dioxide]

What follows are molecules tested on INS-1E cells (assay: Glucose stimulated insulin secretion assay (GSIS) in INS-1E cells). Details: INS-1E cell line, average inhibition.
Assay type: cell-based, rat
Description: as §1, §2, §3

Row | Structure (SMILES) | % inhibition of Insulin (Average Inhibition (%))
18 | O=S1(=O)N=C(NC23CC(F)(C2)C3)Nc2cc(Cl)c(F)cc21 [Compound 19, 6-chloro-7-fluoro-3-((3-fluorobicyclo[1.1.1]pentan-1-yl)amino)-4H-benzo[e][1,2,4]thiadiazine 1,1-dioxide] | C (C is equal to 10-25% inhibition)
19 | O=S1(=O)N=C(NC2CC23CCC3)Nc2ccc(F)cc21 (stereo not shown) [Compound 11, 7-fluoro-3(spiro[2.3]hexan-1-ylamino)-4H-benzo[e][1,2,4]thiadiazine 1,1-dioxide] | B (B is equal to 25-50% inhibition)
20 | O=S1(=O)N=C(NC2CC23CC3)Nc2ccc(F)cc21 (single isomer, unassigned) [Compound 9, (S*)-7-fluoro-3-(spiro[2.2]pentan-1-ylamino)-4H-benzo[e][1,2,4]thiadiazine 1,1-dioxide] | B (B is equal to 25-50% inhibition)
21 | CCC1(NC2=NS(=O)(=O)c3cc(F)ccc3N2)CC1 [Compound 12, 3-((1-ethylcyclopropyl)amino)-7-fluoro-4H-benzo[e][1,2,4]thiadiazine 1,1-dioxide] | C (C is equal to 10-25% inhibition)
22 | CC1(C)CC1NC1=NS(=O)(=O)c2cc(F)ccc2N1 (single isomer, unassigned) [Compound 7, (R*)-3-((2,2-dimethylcyclopropyl)amino)-7-fluoro-4H-benzo[e][1,2,4]thiadiazine 1,1-dioxide] | B (B is equal to 25-50% inhibition)
23 | CC12CC(NC3=NS(=O)(=O)c4cc(F)c(Cl)cc4N3)(C1)C2 [Compound 18, 6-chloro-7-fluoro-3-((3-methylbicyclo[1.1.1]pentan-1-yl)amino)-4H-benzo[e][1,2,4]thiadiazine 1,1-dioxide] | C (C is equal to 10-25% inhibition)

Same assay, conditions: Rattus norvegicus, INS-1E cell line

Row | IC50 [nM] | Structure (SMILES)
24 | 500 to 1000 | O=S1(=O)N=C(NC2CC23CCC3)Nc2ccc(F)cc21 (stereo not shown) [Compound 11, 7-fluoro-3(spiro[2.3]hexan-1-ylamino)-4H-benzo[e][1,2,4]thiadiazine 1,1-dioxide]

Same assay, conditions: Rattus norvegicus, INS-1E cells, 10 μM

Row | Structure (SMILES) | inhibition at 10 µM [%]
25 | O=S1(=O)N=C(NC2CCOC2)Nc2ccc(Cl)cc21 (stereo not shown) [Compound 72] | 25 to 50
26 | O=S1(=O)N=C(NC2CCOC2)Nc2ccc(F)cc21 (stereo not shown) [Compound 71] | 10 to 25
27 | COCC1(NC2=NS(=O)(=O)c3cc(F)c(Cl)cc3N2)CCC1 [Compound 69] | ≥ 50
28 | O=S1(=O)N=C(NC(CF)CF)Nc2ccc(Cl)cc21 [Compound 49] | ≥ 50
29 | O=S1(=O)N=C(NC2(CF)CC2)Nc2cc(Cl)c(F)cc21 [Compound 60] | ≥ 50
30 | CC1(NC2=NS(=O)(=O)c3cc(Cl)ccc3N2)CC1 [Compound 51] | 10 to 25
31 | CC1(NC2=NS(=O)(=O)c3cc(F)c(Cl)cc3N2)CC1 [Compound 58] | ≥ 50
32 | CC1(NC2=NS(=O)(=O)c3cc(F)ccc3N2)CC1 [Compound 46] | ≥ 50
33 | O=S1(=O)N=C(NC2CCOC2)Nc2cc(Cl)c(F)cc21 (stereo not shown) [Compound 73] | ≥ 50
34 | CC(C)C1(NC2=NS(=O)(=O)c3cc(F)c(Cl)cc3N2)CC1 [Compound 64] | 25 to 50
35 | O=S1(=O)N=C(NC(CF)CF)Nc2ccc(F)cc21 [Compound 43] | 10 to 25
36 | O=S1(=O)N=C(NC2(CF)CC2)Nc2ccc(F)cc21 [Compound 47] | 10 to 25
37 | O=S1(=O)N=C(NC2(CF)CC2)Nc2ccc(Cl)cc21 [Compound 52] | 10 to 25
38 | COCC1(NC2=NS(=O)(=O)c3cc(F)ccc3N2)CCC1 [Compound 65] | 25 to 50
39 | CC(C)C1(NC2=NS(=O)(=O)c3cc(F)ccc3N2)CC1 [Compound 63] | ≥ 50
40 | O=S1(=O)N=C(NC23CC(C2)C3)Nc2ccc(Cl)cc21 [Compound 62] | 25 to 50
